Assay results as given in PubChem BioAssay AID288 (DTP/NCI, 2004).
Records with an inconclusive call do not appear. Numbered stars: 1 amine (or outer) side, 2 acyl side, 3 side chain; on linkers, the order of the positions; unused ones are H or OH. Bridge positions count the residues as written; N and C are the ends. Square brackets hold non-standard residues; d marks the D form. Peptide text beside a SMILES is read from it. I, II: the chains in the order shown. * marks the point of attachment. ξ: configuration not given here. Quinaldoyl(3-OH,6-OMe) = COc1ccc2nc(C(=O)*)c(O)cc2c1; X1 = CCC(=O)OC1CC=NN([*:1])C1C(=O)[*:2]; X2 = CC(=O)OC1CC=NN([*:1])C1C(=O)[*:2]; ξNMeVal(3-OH) = CNC(C(=O)O)C(C)(C)O; Sar = CNCC(=O)O

Tested on: BDF1 mice, M5076 sarcoma s.c., survival/tumor T/C
Assay: NCI In Vivo Anticancer Drug Screen. Data for tumor model Sarcoma M5076 (subcutaneous) in B6D2F1 (BDF1) mice
Protocol: The antitumor activity of compounds was measured in mice bearing transplantable tumors. Survival or tumor size were measured and the results are expressed as the measurement made in the treated group (T) divided by the measurement made in the vehicle treated control group (C). The tumor model used in this assay is Sarcoma M5076 (subcutaneous) in B6D2F1 (BDF1) mice

[1] = endpoint: median survival time, dose: 50.0 mg/kg/injection, schedule: Q01DX009 (ip), vehicle: saline with Tween-80, higher = longer survival
[2] = endpoint: median survival time, dose: 100.0 mg/kg/injection, schedule: Q01DX009 (ip), vehicle: saline with Tween-80, higher = longer survival
[3] = endpoint: median survival time, dose: 200.0 mg/kg/injection, schedule: Q01DX009 (ip), vehicle: saline with Tween-80, higher = longer survival
[4] = endpoint: median tumor weight (est.), dose: 50.0 mg/kg/injection, schedule: Q01DX009 (ip), vehicle: saline with Tween-80, higher = larger tumour
[5] = endpoint: median tumor weight (est.), dose: 100.0 mg/kg/injection, schedule: Q01DX009 (ip), vehicle: saline with Tween-80, higher = larger tumour

`CCC(=O)OC1CC=NN2C(=O)C(NC(=O)c3nc4ccc(OC)cc4cc3O)COC(=O)C(C(C)(C)O)N(C)C(=O)CN(C)C(=O)CNC(=O)C3C(OC(C)=O)CC=NN3C(=O)C(NC(=O)c3nc4ccc(OC)cc4cc3O)COC(=O)C(C(C)(C)O)N(C)C(=O)CN(C)C(=O)CNC(=O)C12` (configuration not stated) (I: {Quinaldoyl(3-OH,6-OMe)}-S[X1]G[Sar][ξNMeVal(3-OH)] / II: {Quinaldoyl(3-OH,6-OMe)}-S[X2]G[Sar][ξNMeVal(3-OH)]; ester I:1-II:C, I:C-II:1; configuration not given here) was tested, and the T/C (endpoint: median survival time, dose: 18.8 micrograms/kg/injection, schedule: Q01DX009 (ip), vehicle: Klucel (hydroxypropylcellulose) (HPC), higher = longer survival) was 89 % of control and the T/C (endpoint: median tumor weight (est.), dose: 18.8 micrograms/kg/injection, schedule: Q01DX009 (ip), vehicle: DMSO, higher = larger tumour) was 86 % of control.
For `CCC(C)C(NS(=O)(=O)c1ccc(C)cc1)C(=O)O` (configuration not stated), the T/C [1] was 87 % of control, the T/C [2] was 92 % of control and the T/C [3] was 92 % of control.
`COc1cc(-c2ccc(NC(=O)NC3CC3)c(OC)c2)ccc1NC(=O)NC1CC1` was tested, and the T/C [1] was 101 % of control, the T/C [2] was 93 % of control and the T/C [3] was 88 % of control. For the same compound, the T/C [4] was 101 % of control and the T/C [5] was 84 % of control.
For `CNc1nc(N(C)C)nc(N(C)C)n1`, the T/C (endpoint: median tumor weight (est.), dose: 15.0 mg/kg/injection, schedule: Q02DX011 (ip), vehicle: water, higher = larger tumour) was 87 % of control, the T/C (endpoint: median tumor weight (est.), dose: 30.0 mg/kg/injection, schedule: Q02DX011 (ip), vehicle: water, higher = larger tumour) was 85 % of control and the T/C (endpoint: median tumor weight (est.), dose: 60.0 mg/kg/injection, schedule: Q02DX011 (ip), vehicle: water, higher = larger tumour) was 43 % of control. The T/C (endpoint: median tumor weight (est.), dose: 120.0 mg/kg/injection, schedule: Q02DX011 (ip), vehicle: water, higher = larger tumour) was 13 % of control.
For `CCCCCCCCCCCCCCCc1ccc(O)cc1O`, the T/C (endpoint: median survival time, dose: 25.0 mg/kg/injection, schedule: Q02DX030 (ip), vehicle: saline with Tween-80, higher = longer survival) was 119 % of control and the T/C (endpoint: median survival time, dose: 50.0 mg/kg/injection, schedule: Q02DX030 (ip), vehicle: saline with Tween-80, higher = longer survival) was 111 % of control.
In the case of `CN(Cc1cnc2nc(N)nc(N)c2n1)c1ccc(C(=O)N[C@@H](CCC(=O)O)C(=O)O)cc1`, the T/C (endpoint: median survival time, dose: 0.5 mg/kg/injection, schedule: Q04DX006 (ip), vehicle: saline, higher = longer survival) is reported as 97 % of control, the T/C (endpoint: median survival time, dose: 1.0 mg/kg/injection, schedule: Q04DX006 (ip), vehicle: saline, higher = longer survival) is reported as 106 % of control and the T/C (endpoint: median survival time, dose: 2.0 mg/kg/injection, schedule: Q04DX006 (ip), vehicle: saline, higher = longer survival) is reported as 97 % of control. The T/C (endpoint: median survival time, dose: 4.0 mg/kg/injection, schedule: Q04DX006 (ip), vehicle: saline, higher = longer survival) was 108 % of control.
For `OCCNCCN=C1CCC(=NCCNCCO)CC1`, the T/C [1] was 100 % of control, the T/C [2] was 100 % of control and the T/C [4] was 105 % of control. The T/C [5] was 112 % of control.
For `NC(=O)c1csc(C2OC(CO)C(O)C2O)n1` (configuration not stated), the T/C (endpoint: median survival time, dose: 9.38 mg/kg/injection, schedule: Q01DX009 (ip), vehicle: saline, higher = longer survival) was 103 % of control, the T/C (endpoint: median survival time, dose: 18.8 mg/kg/injection, schedule: Q01DX009 (ip), vehicle: saline, higher = longer survival) was 97 % of control and the T/C (endpoint: median survival time, dose: 37.5 mg/kg/injection, schedule: Q01DX009 (ip), vehicle: saline, higher = longer survival) was 93 % of control. For the same compound, the T/C (endpoint: median survival time, dose: 75.0 mg/kg/injection, schedule: Q01DX009 (ip), vehicle: saline, higher = longer survival) was 94 % of control, the T/C (endpoint: median survival time, dose: 150.0 mg/kg/injection, schedule: Q01DX009 (ip), vehicle: saline, higher = longer survival) was 97 % of control and the T/C (endpoint: median survival time, dose: 300.0 mg/kg/injection, schedule: Q01DX009 (ip), vehicle: saline, higher = longer survival) was 97 % of control. For the same compound, the T/C (endpoint: median survival time, dose: 600.0 mg/kg/injection, schedule: Q01DX009 (ip), vehicle: saline, higher = longer survival) was 101 % of control, the T/C (endpoint: median tumor weight (est.), dose: 9.38 mg/kg/injection, schedule: Q01DX009 (ip), vehicle: saline, higher = larger tumour) was 95 % of control and the T/C (endpoint: median tumor weight (est.), dose: 18.8 mg/kg/injection, schedule: Q01DX009 (ip), vehicle: saline, higher = larger tumour) was 95 % of control. The T/C (endpoint: median tumor weight (est.), dose: 75.0 mg/kg/injection, schedule: Q01DX009 (ip), vehicle: saline, higher = larger tumour) was 100 % of control, the T/C (endpoint: median tumor weight (est.), dose: 150.0 mg/kg/injection, schedule: Q01DX009 (ip), vehicle: saline, higher = larger tumour) was 104 % of control and the T/C (endpoint: median tumor weight (est.), dose: 300.0 mg/kg/injection, schedule: Q01DX009 (ip), vehicle: saline, higher = larger tumour) was 91 % of control.
For `O=c1[nH]cc(F)c(=O)[nH]1`, the T/C (endpoint: median survival time, dose: 6.25 mg/kg/injection, schedule: Q04DX006 (ip), vehicle: saline, higher = longer survival) was 105 % of control, the T/C (endpoint: median survival time, dose: 12.5 mg/kg/injection, schedule: Q02DX033 (ip), vehicle: saline, higher = longer survival) was 101 % of control and the T/C (endpoint: median survival time, dose: 12.5 mg/kg/injection, schedule: Q04DX006 (ip), vehicle: saline, higher = longer survival) was 100 % of control. For the same compound, the T/C (endpoint: median survival time, dose: 25.0 mg/kg/injection, schedule: Q02DX033 (ip), vehicle: saline, higher = longer survival) was 105 % of control, the T/C (endpoint: median survival time, dose: 25.0 mg/kg/injection, schedule: Q04DX006 (ip), vehicle: saline, higher = longer survival) was 108 % of control and the T/C (endpoint: median survival time, dose: 50.0 mg/kg/injection, schedule: Q04DX006 (ip), vehicle: saline, higher = longer survival) was 105 % of control.
